Data taken from patent US10722514B2 (FLX Bio, Inc., priority 2017, dated 2020).

These molecules were tested against T1, recombinant full-length USP7 (Homo sapiens, UniProt Q93009) (assay: USP7-mediated ubiquitin-rhodamine cleavage assay). Details: recombinant full-length USP7 62 pM; ubiquitin-rhodamine 100 nM; 30-minute incubation with compound, 1 hour reaction at room temperature; read-out: Potency: USP7 IC50.
T1 construct: A 25 μl reaction volume containing recombinant full-length USP7 (62 pM)
T1 sequence (Q93009 whole entry): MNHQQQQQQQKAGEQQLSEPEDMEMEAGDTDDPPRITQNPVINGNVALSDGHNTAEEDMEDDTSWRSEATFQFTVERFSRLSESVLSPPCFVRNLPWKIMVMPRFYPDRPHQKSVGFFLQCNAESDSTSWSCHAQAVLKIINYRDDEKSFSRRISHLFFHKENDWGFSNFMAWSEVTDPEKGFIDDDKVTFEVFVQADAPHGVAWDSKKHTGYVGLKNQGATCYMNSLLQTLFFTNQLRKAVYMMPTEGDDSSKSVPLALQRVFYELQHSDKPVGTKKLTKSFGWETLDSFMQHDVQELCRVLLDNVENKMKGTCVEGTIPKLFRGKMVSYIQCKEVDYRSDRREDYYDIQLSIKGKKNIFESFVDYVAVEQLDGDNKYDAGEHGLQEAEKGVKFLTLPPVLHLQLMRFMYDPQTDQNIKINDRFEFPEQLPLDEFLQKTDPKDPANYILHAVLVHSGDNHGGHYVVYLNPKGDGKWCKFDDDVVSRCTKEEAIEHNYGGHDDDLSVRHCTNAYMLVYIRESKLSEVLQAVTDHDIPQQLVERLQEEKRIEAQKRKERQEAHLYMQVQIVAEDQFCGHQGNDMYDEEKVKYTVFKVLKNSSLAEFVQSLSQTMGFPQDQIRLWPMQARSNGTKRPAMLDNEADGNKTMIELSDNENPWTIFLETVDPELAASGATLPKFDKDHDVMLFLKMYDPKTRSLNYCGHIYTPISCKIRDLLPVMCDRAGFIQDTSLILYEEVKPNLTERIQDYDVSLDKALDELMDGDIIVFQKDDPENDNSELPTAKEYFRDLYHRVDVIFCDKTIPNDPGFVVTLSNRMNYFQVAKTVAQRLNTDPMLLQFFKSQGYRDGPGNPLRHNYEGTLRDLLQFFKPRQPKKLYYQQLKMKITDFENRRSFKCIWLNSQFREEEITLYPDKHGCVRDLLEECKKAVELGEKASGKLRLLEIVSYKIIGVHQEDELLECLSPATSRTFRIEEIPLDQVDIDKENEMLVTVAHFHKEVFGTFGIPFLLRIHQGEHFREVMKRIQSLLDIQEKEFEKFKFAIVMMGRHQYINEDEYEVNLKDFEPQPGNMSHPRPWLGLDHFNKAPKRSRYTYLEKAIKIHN
Format: biochemical
How it was run: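 Enzyme 62 pM; HEPES pH 7.3/150 mM NaCl/1 mM TCEP/125 μg/ml BSA; 1% DMSO; 30 min cpd preinc RT; Ub-rhodamine 100 nM, 1 h RT, dark; acetic acid stop; fluorescence; IC50 4-param fit.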

Row | IC50 | SMILES
1 | < 1000 nM | Cc1cc(Cl)cc(-c2ccnc3c(F)c(CN4C(=O)CCC4=O)sc23)c1OC1CCNCC1 [Example 242, 1-((7-(5-Chloro-3-methyl-2-(piperidin-4-yloxy)phenyl)-3-fluorothieno[3,2-b]pyridin-2-yl)methyl)pyrrolidine-2,5-dione]
2 | < 1000 nM | Cc1cc(Cl)cc(-c2ccnc3cc(CN4C(=O)C5C(C4=O)C5(C)C)sc23)c1O[C@@H]1CNC[C@@H]1F (stereo partly drawn) [Example 312, 3-[[7-[5-chloro-2-[(3R,4S)-4-fluoropyrrolidin-3-yl]oxy-3-methyl-phenyl]thieno[3,2-b]pyridin-2-yl]methyl]-6,6-dimethyl-3-azabicyclo[3.1.0]hexane-2,4-dione]
3 | < 1000 nM | CCN1CC[C@@H](Oc2c(C)cc(Cl)cc2-c2ccnc3cc(CN4C(=O)CCC4=O)sc23)[C@@H](C)C1 [Example 307, 1-[[7-[5-chloro-2-[[(3S,4R)-1-ethyl-3-methyl-4-piperidyl]oxy]-3-methyl-phenyl]thieno[3,2-b]pyridin-2-yl]methyl]pyrrolidine-2,5-dione]
4 | 10000 to 30000 nM | CCC(O)c1cc2nccc(-c3cc(Cl)cc(C)c3O[C@H]3CCCN(C)C3)c2s1 (stereo partly drawn) [Example 186, 1-(7-(5-Chloro-3-methyl-2-(((S)-1-methylpiperidin-3-yl)oxy)phenyl)thieno[3,2-b]pyridin-2-yl)propan-1-ol]
5 | < 1000 nM | Cc1cc(Cl)cc(-c2ccnc3cc(CN4C(=O)CCNC4=O)sc23)c1O[C@@H]1CNC[C@@H]1F [Example 152, 3-((7-(5-Chloro-2-(((3R,4S)-4-fluoropyrrolidin-3-yl)oxy)-3-methylphenyl)thieno[3,2-b]pyridin-2-yl)methyl)dihydropyrimidine-2,4(1H,3H)-dione]
6 | < 1000 nM | Cc1cc(Cl)cc(-c2ncnc3cc(CN4C(=O)COC4=O)sc23)c1O[C@@H]1CNC[C@@H]1F [Example 128, 3-((4-(5-Chloro-2-(((3R,4S)-4-fluoropyrrolidin-3-yl)oxy)-3-methylphenyl)thieno[3,2-d]pyrimidin-6-yl)methyl)oxazolidine-2,4-dione]
7 | 1000 to 10000 nM | Cc1cc(Cl)cc(-c2ccnc3cc(CO)sc23)c1O[C@@H]1CNC[C@H]1O [Example 80, (3R,4R)-4-(4-Chloro-2-(2-(hydroxymethyl)thieno[3,2-b]pyridin-7-yl)-6-methylphenoxy)pyrrolidin-3-ol]
8 | 1000 to 10000 nM | Cc1cc(Cl)cc(-c2ccnc3cc(CN4C(=O)CCC4C(F)(F)F)sc23)c1OC1CCNCC1 (stereo not drawn) [Example 201, 1-((7-(5-Chloro-3-methyl-2-(piperidin-4-yloxy)phenyl)thieno[3,2-b]pyridin-2-yl)methyl)-5-(trifluoromethyl)pyrrolidin-2-one]
9 | < 1000 nM | Cc1cc(Cl)cc(-c2ccnc3cc(CN4C(=O)CCC4=O)sc23)c1OC1CCNC(C)(C)C1 (stereo not drawn) [Example 205, 1-((7-(5-Chloro-2-((2,2-dimethylpiperidin-4-yl)oxy)-3-methylphenyl)thieno[3,2-b]pyridin-2-yl)methyl)pyrrolidine-2,5-dione]
10 | < 1000 nM | Cc1cc(Cl)cc(-c2ccnc3cc(CN4C(=O)C5C(C4=O)C5(C)C)sc23)c1OCC1(C)CNC1 (stereo not drawn) [Example 400, 3-[[7-[5-chloro-3-methyl-2-[(3-methylazetidin-3-yl)methoxy]phenyl]thieno[3,2-b]pyridin-2-yl]methyl]-6,6-dimethyl-3-azabicyclo[3.1.0]hexane-2,4-dione]

Row | SMILES | IC50
11 | Cc1cc(Cl)cc(-c2ccnc3cc(Cn4c(=O)ccn(C(C)(C)C)c4=O)sc23)c1O[C@H]1CCCNC1 [Example 282] | < 1000 nM

Same assay, conditions: recombinant full-length USP7 62 pM; ubiquitin-rhodamine 100 nM; 30-minute incubation, 1 hour reaction at room temperature; read-out: Potency (USP7 IC50)

Row | IC50 | SMILES
12 | < 1000 nM | Cc1cc(Cl)cc(-c2ccnc3cc(Cn4c(=O)ccn(CC(F)(F)F)c4=O)sc23)c1Oc1ccncc1 [Example 681, 3-[[7-[5-chloro-3-methyl-2-(4-pyridyloxy)phenyl]thieno[3,2-b]pyridin-2-yl]methyl]-1-(2,2,2-trifluoroethyl)pyrimidine-2,4-dione; 2,2,2-trifluoroacetic acid]
13 | < 1000 nM | Cc1cc(Cl)cc(-c2ccnc3cc(Cn4c(=O)ccn(CC(F)(F)F)c4=O)sc23)c1O[C@H]1C[C@@H]2NCCO[C@H]2C1 [Example 694, 3-[[7-[2-[[(4aS,6S,7aS)-2,3,4,4a,5,6,7,7a-octahydrocyclopenta[b][1,4]oxazin-6-yl]oxy]-5-chloro-3-methyl-phenyl]thieno[3,2-b]pyridin-2-yl]methyl]-1-(2,2,2-trifluoroethyl)pyrimidine-2,4-dione]

Row | SMILES | IC50
14 | Cc1cc(Cl)cc(-c2ccnc3cc(Cn4c(=O)ccn(CC(F)(F)F)c4=O)sc23)c1OC1CC(O)C1 (stereo not drawn) [Example 678, 3-[[7-[5-chloro-2-(3-hydroxycyclobutoxy)-3-methyl-phenyl]thieno[3,2-b]pyridin-2-yl]methyl]-1-(2,2,2-trifluoroethyl)pyrimidine-2,4-dione] | < 1000 nM

Same assay, conditions: recombinant full-length USP7 62 pM; ubiquitin-rhodamine 100 nM; 30-minute pre-incubation, 1 hour reaction at room temperature; read-out: Potency (USP7 IC50)

Row | IC50 | SMILES
15 | < 1000 nM | Cc1cc([N+](=O)[O-])cc(-c2ccnc3cc(Cn4c(=O)ccn(CC(F)(F)F)c4=O)sc23)c1Oc1ccnn1C [Example 404, 3-[[7-[3-methyl-2-(2-methylpyrazol-3-yl)oxy-5-nitro-phenyl]thieno[3,2-b]pyridin-2-yl]methyl]-1-(2,2,2-trifluoroethyl)pyrimidine-2,4-dione; 2,2,2-trifluoroacetic acid]
16 | < 1000 nM | Cc1cc(Cl)cc(-c2ccnc3cc(Cn4c(=O)ccn(C)c4=O)sc23)c1OC1CC2CC1CN2 (stereo not drawn) [Example 476, 3-[[7-[2-(2-azabicyclo[2.2.1]heptan-5-yloxy)-5-chloro-3-methyl-phenyl]thieno[3,2-b]pyridin-2-yl]methyl]-1-methyl-pyrimidine-2,4-dione; 2,2,2-trifluoroacetic acid]
17 | < 1000 nM | Cc1cc(Cl)cc(-c2ccnc3cc(CN4C(=O)CCC4=O)sc23)c1OC1CC[C@H](C)NC1 (stereo partly drawn) [Example 462, 1-[[7-[5-chloro-3-methyl-2-[[(6S)-6-methyl-3-piperidyl]oxy]phenyl]thieno[3,2-b]pyridin-2-yl]methyl]pyrrolidine-2,5-dione; 2,2,2-trifluoroacetic acid]
18 | < 1000 nM | Cc1cc(Cl)cc(-c2ncnc3cc(Cn4c(=O)ccn(C)c4=O)sc23)c1O[C@H]1CCCNCC1 [Example 582, 3-[[4-[2-[(4S)-azepan-4-yl]oxy-5-chloro-3-methyl-phenyl]thieno[3,2-d]pyrimidin-6-yl]methyl]-1-methyl-pyrimidine-2,4-dione]
19 | < 1000 nM | Cc1cc(Cl)cc(-c2ccnc3cc(CN4C(=O)CCC4=O)sc23)c1O[C@H]1CNCC[C@@H]1F [Example 425, 1-[[7-[5-chloro-2-[[(3S,4S)-4-fluoro-3-piperidyl]oxy]-3-methyl-phenyl]thieno[3,2-b]pyridin-2-yl]methyl]pyrrolidine-2,5-dione]
20 | < 1000 nM | Cc1cc(Cl)cc(-c2ccnc3cc(CN4C(=O)CCC4=O)sc23)c1O[C@H]1CCCN(C)C1 [Example 448, 1-[[7-[5-chloro-3-methyl-2-[[(3S)-1-methyl-3-piperidyl]oxy]phenyl]thieno[3,2-b]pyridin-2-yl]methyl]pyrrolidine-2,5-dione]

Row | SMILES | IC50
21 | Cc1cc(Cl)cc(-c2ccnc3cc(Cn4c(=O)ccn(C)c4=O)sc23)c1O[C@@H]1CC[C@@](C)(N)C1 [Example 518, 3-[[7-[2-[(1R,3R)-3-amino-3-methyl-cyclopentoxy]-5-chloro-3-methyl-phenyl]thieno[3,2-b]pyridin-2-yl]methyl]-1-methyl-pyrimidine-2,4-dione; 2,2,2-trifluoroacetic acid] | < 1000 nM
